pIC50: −log10 of the molar value. Structures can show the parent of a compound that is named as a salt.

In the first assay the target is MTH1 (Homo sapiens, UniProt P36639). In words: MTH1 enzymatic assay and IC50 value determination (malachite green). It is filed as biochemical. The note with it: MTH1 4.8 nM, dGTP 100 μM, 15 minutes at 22° C.; group: between 2 μM and 10 μM. On the procedure:
MTH1 Enzymatic Assay and IC50 Value Determination
MTH1 catalyzes the hydrolysis of dGTP to dGMP and PPi. By coupling the reaction to pyrophosphatase added in excess PPi is converted to Pi that can be detected by using the malachite green assay reagent. Briefly, for IC50 value determination the compound to be analyzed is diluted in assay buffer in a 1:3 dilution series generating 12 different compound concentrations giving a final DMSO concentration of 1% in the assay well. MTH1 diluted in assay buffer (100 mM Tris-acetate, 40 mM NaCl, 10 mM magnesium acetate, 1 mM DTT and 0.005% Tween 20) fortified with E. coli pyrophosphatase (0.8 U/ml) is added to a final concentration of 4.8 nM. dGTP diluted in assay buffer is added to a final concentration of 100 μM. The reaction mixture is incubated with shaking for 15 minutes at 22° C. To 100 μl reaction mixture is 25 μl Malachite green assay regent (0.095% Malachite green in 17% H2SO4, 1.5% Ammonium molybdate, 0.17% Tween 20) added followed by incubation with shaking for 15 minutes at 22° C.
The absorbance of the assay plate is read at 630 nm using an EnVision Multilabel plate reader. The IC50 value is determined by fitting a dose response curve to the data points using nonlinear regression analysis and the equation Y=Bottom+(Top−Bottom)/(1+10^((Log IC50−X)*HillSlope)), where Y is the read absorbance at 630 nm and X is log [compound].
By pIC50 is commonly meant the IC50 on a negative log10 scale, so that one unit is a factor of ten. A high value points to a small IC50. `Cc1cccc(-c2cc(NC3CCN(C(=O)OC(C)(C)C)CC3)nc(N)n2)c1C` [Example 237, tert-Butyl 4-((2-amino-6-(2,3-dimethylphenyl)pyrimidin-4-yl)amino)piperidine-1-carboxylate]: the negative-log IC50 (pIC50) was 5.00 to 5.70.

Take `Cc1cccc(-c2cc(NCCC(=O)N3CCOCC3)nc(N)n2)c1C` [Example 277, 3-{[2-amino-6-(2,3-dimethylphenyl)pyrimidin-4-yl]amino}-1-(morpholin-4-yl)propan-1-one]: the pIC50 was 5.00 to 5.70.

Molecule `Cc1cccc(-c2cc(N[C@@H]3CN4CCC3CC4)nc(N)n2)c1C` [Example 281, 4-N-[(3S)-1-azabicyclo[2.2.2]octan-3-yl]-6-(2,3-dimethylphenyl)pyrimidine-2,4-diamine] had a pIC50 of 5.00 to 5.70.

`Cc1ccc(S(=O)(=O)N2CCOCC2)cc1-c1cc(NCCCN2CCCC2=O)nc(N)n1` [Example 289, 1-[3-({2-amino-6-[2-methyl-5-(morpholine-4-sulfonyl)phenyl]pyrimidin-4-yl}amino)propyl]pyrrolidin-2-one] showed a negative-log IC50 (pIC50) of 5.00 to 5.70.

The assay is the same for the next values; noted with them: MTH1 4.8 nM, dGTP 100 μM, 15 minutes at 22° C.; group: less than 200 nM.
For the molecule `CNc1cc(-c2cc(F)ccc2C(F)(F)F)nc(N)n1` [Example 208, 6-[5-fluoro-2-(trifluoromethyl)phenyl]-4-N-methylpyrimidine-2,4-diamine], the negative-log IC50 (pIC50) was more than 6.70.

Take `CNc1cc(-c2cc(Cl)ccc2Cl)nc(N)n1` [Example 209, 6-(2,5-dichlorophenyl)-4-N-methylpyrimidine-2,4-diamine]: the pIC50 is more than 6.70.

For the molecule `CNc1cc(-c2cc(Cl)ccc2F)nc(N)n1` [Example 210, 6-(5-chloro-2-fluorophenyl)-4-N-methylpyrimidine-2,4-diamine], the pIC50 is more than 6.70.

On to `CNc1cc(-c2cc(C#N)ccc2C)nc(N)n1` [Example 211, 3-[2-amino-6-(methylamino)pyrimidin-4-yl]-4-methylbenzonitrile], for which the negative logarithm of the IC50 (pIC50) is more than 6.70.

For the molecule `CNc1cc(-c2cc(F)c(C)cc2Cl)nc(N)n1` [Example 213, 6-(2-chloro-5-fluoro-4-methylphenyl)-4-N-methylpyrimidine-2,4-diamine], the pIC50 was more than 6.70.

`CNc1cc(-c2cc(C)c(F)cc2Cl)nc(N)n1` [Example 215, 6-(2-chloro-4-fluoro-5-methylphenyl)-4-N-methylpyrimidine-2,4-diamine] showed a pIC50 of more than 6.70.

`Cc1ccc(Cl)cc1-c1cc(NC2CC2)nc(N)n1` [Example 219, 6-(5-chloro-2-methylphenyl)-4-N-cyclopropylpyrimidine-2,4-diamine] gave a negative-log IC50 (pIC50) of more than 6.70.

`Cc1ccc(Cl)cc1-c1cc(NC2CCC2)nc(N)n1` [Example 220, 6-(5-chloro-2-methylphenyl)-4-N-cyclobutylpyrimidine-2,4-diamine]: the negative logarithm of the IC50 (pIC50) is more than 6.70.

Molecule `Cc1ccc(Cl)cc1-c1cc(NCCc2ccc(Cl)cc2)nc(N)n1` [Example 222, 6-(5-chloro-2-methylphenyl)-4-N-[2-(4-chlorophenyl)ethyl]pyrimidine-2,4-diamine] had a pIC50 of more than 6.70.

Regarding `CNc1cc(-c2cccc(C)c2Cl)nc(N)n1` [Example 226, 6-(2-chloro-3-methylphenyl)-4-N-methylpyrimidine-2,4-diamine], the negative logarithm of the IC50 (pIC50) was more than 6.70.

Molecule `Cc1cccc(-c2cc(NC3CC3)nc(N)n2)c1Cl` [Example 227, 6-(2-chloro-3-methylphenyl)-4-N-cyclopropylpyrimidine-2,4-diamine] gave a pIC50 of more than 6.70.

Turning to `Cc1cccc(-c2cc(NCCc3ccc(Cl)cc3)nc(N)n2)c1Cl` [Example 228, 6-(2-chloro-3-methylphenyl)-4-N-[2-(4-chlorophenyl)ethyl]pyrimidine-2,4-diamine], the pIC50 is more than 6.70.

Molecule `Nc1nc(NC2CC2)cc(-c2cccc3[nH]ccc23)n1` [Example 230, 4-N-cyclopropyl-6-(1H-indol-4-yl)pyrimidine-2,4-diamine] gave a pIC50 of more than 6.70.

Take `Nc1nc(NCCc2ccc(Cl)cc2)cc(-c2cccc3[nH]ccc23)n1` [Example 231, 4-N-[2-(4-chlorophenyl)ethyl]-6-(1H-indol-4-yl)pyrimidine-2,4-diamine]: the pIC50 was more than 6.70.

Consider `Nc1nc(NC2CC2)cc(-c2cccc3ncccc23)n1` [Example 232, 4-N-cyclopropyl-6-(quinolin-5-yl)pyrimidine-2,4-diamine], for which the negative-log IC50 (pIC50) was more than 6.70.

The molecule `Cc1c(Cl)cccc1-c1cc(NC2CC3CCC2C3)nc(N)n1` (centres unmarked) [Example 244, 4-N-{bicyclo[2.2.1]heptan-2-yl}-6-(3-chloro-2-methylphenyl)pyrimidine-2,4-diamine] gave a pIC50 of more than 6.70.

Regarding `CCNc1cc(-c2cccc(Cl)c2C)nc(N)n1` [Example 245, 6-(3-chloro-2-methylphenyl)-4-N-ethylpyrimidine-2,4-diamine], the pIC50 is more than 6.70.

For `Cc1c(Cl)cccc1-c1cc(NC(C)C)nc(N)n1` [Example 246, 6-(3-chloro-2-methylphenyl)-4-N-(propan-2-yl)pyrimidine-2,4-diamine], the negative-log IC50 (pIC50) is more than 6.70.

In turn, `Cc1ccc2[nH]c(C)c(CCNc3cc(-c4cccc(C)c4C)nc(N)n3)c2c1` [Example 249, 4-N-[2-(2,5-dimethyl-1H-indol-3-yl)ethyl]-6-(2,3-dimethylphenyl)pyrimidine-2,4-diamine] showed a pIC50 of more than 6.70.

`Cc1cccc(-c2cc(NCc3ccc4cn[nH]c4c3)nc(N)n2)c1C` [Example 252, 6-(2,3-dimethylphenyl)-4-N-(1H-indazol-6-ylmethyl)pyrimidine-2,4-diamine] gave a pIC50 of more than 6.70.

Molecule `Cc1cccc(-c2cc(NCc3cnc(Cl)cn3)nc(N)n2)c1C` [Example 254, 4-N-[(5-chloropyrazin-2-yl)methyl]-6-(2,3-dimethylphenyl)pyrimidine-2,4-diamine] gave a pIC50 of more than 6.70.

`CNc1cc(-c2ccc(OCC3CCN(C(=O)OC(C)(C)C)CC3)c(COC)c2)nc(N)n1` [Example 256, tert-butyl 4-{4-[2-amino-6-(methylamino)pyrimidin-4-yl]-2-(methoxymethyl)phenoxymethyl}piperidine-1-carboxylate] had a pIC50 of more than 6.70.

As for `CNc1cc(-c2ccc(OCC3CCNCC3)c(COC)c2)nc(N)n1` [Example 257, 6-[3-(methoxymethyl)-4-(piperidin-4-ylmethoxy)phenyl]-4-N-methylpyrimidine-2,4-diamine hydrochloride], the pIC50 is more than 6.70.

For `CNc1cc(-c2ccc(OC)c(C)c2C)nc(N)n1` [Example 259, 6-(4-methoxy-2,3-dimethylphenyl)-4-N-methylpyrimidine-2,4-diamine], the pIC50 was more than 6.70.

`CNc1cc(-c2ccc(F)c(C)c2C)nc(N)n1` [Example 260, 6-(4-fluoro-2,3-dimethylphenyl)-4-N-methylpyrimidine-2,4-diamine]: the negative-log IC50 (pIC50) was more than 6.70.

As to `Cc1ccccc1-c1cc(NCCc2ccc(Cl)cc2)nc(N)n1` [Example 264, 4-N-[2-(4-chlorophenyl)ethyl]-6-(2-methylphenyl)pyrimidine-2,4-diamine], the pIC50 was more than 6.70.

Molecule `Nc1nc(NCCc2ccc(Cl)cc2)cc(-c2cccc3ncccc23)n1` [Example 266, 4-N-[2-(4-chlorophenyl)ethyl]-6-(quinolin-5-yl)pyrimidine-2,4-diamine] gave a pIC50 of more than 6.70.

As to `Cc1cccc(-c2cc(NC3CC3c3ccc(Cl)cc3)nc(N)n2)c1C` (centres unmarked) [Example 267, 4-N-[2-(4-chlorophenyl)cyclopropyl]-6-(2,3-dimethylphenyl)pyrimidine-2,4-diamine], the pIC50 is more than 6.70.

Take `Cc1cccc(-c2cc(NCCc3cccc(O)c3)nc(N)n2)c1C` [Example 269, 3-(2-{[2-amino-6-(2,3-dimethylphenyl)pyrimidin-4-yl]amino}ethyl)phenol]: the negative logarithm of the IC50 (pIC50) was more than 6.70.

For `Cc1cccc(-c2cc(NCCNC(=O)OCc3ccccc3)nc(N)n2)c1C` [Example 273, benzyl N-(2-{[2-amino-6-(2,3-dimethylphenyl)pyrimidin-4-yl]amino}ethyl)-carbamate], the pIC50 was more than 6.70.

As for `Cc1cccc(-c2cc(NCCCNC(=O)OC(C)(C)C)nc(N)n2)c1C` [Example 275, tert-butyl N-(3-{[2-amino-6-(2,3-dimethylphenyl)pyrimidin-4-yl]amino}propyl)-carbamate], the negative logarithm of the IC50 (pIC50) is more than 6.70.

On to `Cc1cc(CCCNc2cc(-c3cccc(C)c3C)nc(N)n2)n[nH]1` [Example 276, 6-(2,3-dimethylphenyl)-4-N-[3-(5-methyl-1H-pyrazol-3-yl)propyl]pyrimidine-2,4-diamine], for which the pIC50 was more than 6.70.

In turn, `Cc1cccc(-c2cc(NCC3CCCN3C(=O)OC(C)(C)C)nc(N)n2)c1C` (centres unmarked) [Example 282, tert-butyl 2-({[2-amino-6-(2,3-dimethylphenyl)pyrimidin-4-yl]amino}methyl)-pyrrolidine-1-carboxylate] showed a pIC50 of more than 6.70.

Take `Cc1cccc(-c2cc(NCC3(c4ccc(Cl)cc4)CC3)nc(N)n2)c1C` [Example 295, 4-N-{[1-(4-chlorophenyl)cyclopropyl]methyl}-6-(2,3-dimethylphenyl)pyrimidine-2,4-diamine]: the pIC50 is more than 6.70.
